Series [1] has as its system A17 cells. More on the design: method as in Gambini et al., 2018. The following applies: A17, 24 h; ref Gambini et al., 2018; cited from earlier work.
For series [2], the system named is SKBR3 cells. Details: method as in Serova et al., 2006. The following applies: SKBR3, 24 h; ref Serova et al., 2006; cited from earlier work.
Series [3] deals with MDA-MB231 cells. More on the design: method as in Gambini et al., 2018. The following applies: MDA-MB231, 48 h; ref Gambini et al., 2018; cited from earlier work.
The test system of series [4] is SKBR3 cells. Description: MTT cell viability assay on SKBR3 cells. The class given is cell-based, human. From the text: (§1) Human MDA-MB-231 (ER–/PR–/HER2–) and SK-BR-3 (ER–/PR–/HER2+) cells were obtained from American Type Culture Collection (Rockville, MD) and cultured in Dulbecco's Modified Essential Medium (DMEM, Gibco, Life Technologies) supplemented with 10% fetal bovine serum (FBS, Gibco, Life Technologies) and 1% penicillin–streptomycin (Gibco, Life Technologies). A17 cells were established from a spontaneous lobular carcinoma that arose in an FVB/neuT mouse (Galiè et al., [2005]), and maintained in DMEM plus 20% FBS and 1% penicillin-streptomycin. Cells were cultured at 37°C under humidified atmosphere with 5% CO2.
(§2) Stock solutions were prepared for each gold(I) compound (50 mM) using dimethyl sulfoxide (DMSO) (Sigma-Aldrich) as solvent. The effects of gold(I) compounds on SKBR3, A17 and MDA-MB231 cells viability were evaluated by seeding, respectively, 10, ^*10^3, 2.5 ^*10^3, 7, ^*10^3 cells/well in 96 wells plates in complete medium (DMEM supplemented with FBS) and compared to those of cisplatin. The day after, fresh medium containing vehicle alone (DMSO, 1 % v/v final concentration) or increasing concentrations of each compound ranging from 0.1 to 100 μM was added. Cell viability was determined using a MTT [3-(4,5-dimethylthiazol-2-yl)-2,5-diphenyl-2H-tetrazolium bromide Sigma Aldrich, St. Louis, MO] assay, which is based on the conversion of MTT to formazan crystals by mitochondrial enzymes, after 24, 48, and 72 h. The formazan deposits were dissolved in DMSO and the absorbance of each well was measured at 540 nm in Multiskan Ascent 96/384 Plate Reader. Each drug concentration was evaluated with 8 replicates and each experiment was repeated three times. At the end of the experiments a dose–response curve was plotted, and the IC50 concentrations were determined. Statistical analysis was performed using One-Way ANOVA analysis of variance followed by Dunnett's Multiple Comparison Test. Quantitative data are presented as means ± SEM. Differences were considered significant at ^*P ≤ 0.0332; ^**P ≤ 0.0021; ^***P ≤ 0.0002; ^****P ≤ 0.0001.
(§3) IC50 values were calculated for each of the cell lines tested, by fitting the concentration-effect curves data obtained in the three experiments with the sigmoid-Emax model using nonlinear regression, weighted by the reciprocal of the square of the predicted effect.
For orientation: Tetrazolium dyes change colour on reduction, which living cells bring about.

For the next series, the system named is DNA. Details: method as in Nafisi et al., 2007. Particulars: ref Nafisi et al., 2007; cited from earlier work.
The test system of series [5] is MDA-MB231 cells. In words: MTT cell viability assay on MDA-MB231 cells. The following applies: MDA-MB231, 24 h, ± S. D. The class given is cell-based, human.
Source text: as §1
as §2, with “Statistical analysis was performed using One-Way ANOVA analysis of variance followed by Dunnett's Multiple Comparison Test.” left out, “Differences were considered significant at ^*P ≤ 0.0332; ^**P ≤ 0.0021; ^***P ≤ 0.0002; ^****P ≤ 0.0001.” left out
as §3

The nature of series [6]: Stability in physiological condition. The class given is physicochemical.
In series [7] the test system is A17 cells. Description: MTT cell viability assay on A17 cells. The class given is cell-based, murine. Particulars: A17, 24 h, ± S. D.
Source text: as §1
as §2, with “Statistical analysis was performed using One-Way ANOVA analysis of variance followed by Dunnett's Multiple Comparison Test.” left out, “Differences were considered significant at ^*P ≤ 0.0332; ^**P ≤ 0.0021; ^***P ≤ 0.0002; ^****P ≤ 0.0001.” left out
as §3

Read-outs that look alike come from different tables or passages of the source.

By IC50 is commonly meant the midpoint of a concentration-inhibition curve.

With `N.N.[Cl][Pt][Cl]` [Cisplatin], the IC50 in the series with A17 cells [1] was 15.9 ± 1.17 µM; in the series with SKBR3 cells [2] it was 43 ± 7 µM; in the series on MDA-MB231 cells [3], 50.5 ± 2 µM.

As to `O=C(O)c1ccccc1[PH]([Au][Cl])(c1ccccc1)c1ccccc1` [Compound 1, 2-benzoic-diphenylphosphanegold chloride], the “cytotoxic activity in MTT screening” value in the series with SKBR3 cells [4] (SKBR3 cells, 72 h (Figure 1S) and 48 h (Figure 2)) is given as “did not show relevant cytotoxic activity”.

`CN(C)c1ccc2cc3ccc(N(C)C)cc3nc2c1` [acridine orange]: in the series on DNA, the “binding constant of classical intercalators to DNA” value (“binding constant” below) is 26900 M⁻¹.

In the case of `CC[n+]1c(-c2ccccc2)c2cc(N)ccc2c2ccc(N)cc21` [ethidium bromide], the “binding constant” value in the series with DNA is 65800 M⁻¹.

As to `CN(C)c1ccc2nc3ccc(=[N+](C)C)cc-3sc2c1` [methylene blue], the “binding constant” value in the series on DNA was 21300 M⁻¹.

As to “(3,5-dintropyrazolyl-1H-gold(I)-(triphenylphosphane) [Compound 4]”, the IC50 was 12.3 ± 1.1 µM in the series with SKBR3 cells [4] (SKBR3, 24 h, ± S. D.); 12.8 ± 0.7 µM in the series on MDA-MB231 cells [5]; 11 ± 1 µM in the series on A17 cells [7]. Further, the “stability in physiological condition” value in series [6] was “less stable in physiological condition”.

(Values after publication PMC7821381, “Multi-Targeted Anticancer Activity of Imidazolate Phosphane Gold(I) Compounds by Inhibition of DHFR and TrxR in Breast Cancer Cells” (Frontiers in Chemistry, 2021).)
